Results taken from patent US20210341482A1, “CANCER BIOMARKERS” (NOTTINGHAM UNIVERSITY HOSPITALS NHS TRUST, priority 2018, published 2021).

How the values were obtained:
[1] = test system: ER+ early stage breast cancer; experiment: Distant relapse risk after adjuvant systemic therapy, multicentre adjuvant therapy cohort stratified by SPAG5 mRNA; assay type: in vivo, human
Source text: A) Breast Cancer—Assessment Death and Distant Relapse Risks after Surgery and Receiving Adjuvant Systemic Therapy if Eligible in Early Stage Breast Cancer (i.e. Examples 26 to 37, 45, 49, 50, 53, 54 and 57)
The inventors evaluated the prognostic utility of SPAG5-mRNA expression in a large combined breast cancer (BC) cohort which was sourced from 15 publically-available, global datasets (n=3538) using the following access numbers.
All the databases had been downloaded and processed. The gene expression data were converted to a common scale (median equal to 0 and standard deviation equal to 1) in order to merge all of the studies data and create combined cohorts. Each sample in the data was standardised to a mean of 0 and standard deviation of 1. Then the data was median centred for each gene whereby median of each gene is 0.
SPAG5 gene expression data of each database were converted to a common scale (median equal to 0 and standard deviation equal to 1) in order to merge all of the studies data that used the same platform and create combined cohorts. To convert to a common scale each sample in the data was standardised to a mean of 0 and standard deviation of 1. Then the data was median centred for each gene whereby median of each gene is 0. Databases using same platform have been merged and the median expression was calculated. The median expression of SPAG5 transcript for each platform has been calculated and values equal to or higher than the median coded as +1 (overexpression). Values of less than the median have been coded 0 or low SPAG5.

SPAG5 mRNA = SPAG5 mRNA expression change and clinical response during preoperative endocrine therapy (letrozole); assay type: in vivo, human
Source text: B) Breast Cancer—Assessment of the Clinical Dynamic Response after Receiving Preoperative Endocrine Therapy (Aromatase Inhibitor) (i.e. Example 38)
The association between SPAG5 mRNA expression and clinical response after receiving preoperative therapy has been analysed in a total of 101 patients from a consecutive series of 255 postmenopausal women who presented to Western General Hospital in Edinburgh with large primary histologically confirmed estrogen receptor (ER)-rich (Allred scores 6 to 8) invasive breast cancer and who were recruited between 2003 and 2011 fulfilled the requirements to be included in this. All patients gave informed consent and the study was approved by the local regional ethics committee (2001/8/80 and 2001/8/81). Patients were treated with letrozole (Femara, 2.5 mg; Novartis Pharma AG, Basel, Switzerland) daily for at least 3 months. The clinical response was assessed by three-dimensional ultrasound measurements using dynamic (serial) changes in tumor volumes. Tumours with <50% reduction in volume were classified as non-responders. SPAG5 mRNA expression data were retrieved from the publically available gene expression microarray datasets at the National Center for Biotechnology Information Gene Expression Omnibus under access numbers (GSE59515, GSE55374, and GSE20181).
For “GSE59515” and “GSE55374” cases, RNA was extracted, labelled, and hybridized to HumanHT-12 v4 Illumina BeadChips (GPL10558) according to the standard protocol for NuGEN amplified samples. For GSE20181 cases, samples were processed on Affymetrix U133A gene chip (GPL96). There were no significant differences in clinical or pathologic features of patients or tumours from the three datasets. Illumina and Affymetrix data were independently normalized (quantile using the lumi Bioconductor package2l and the log scale robust multi-array analysis expression measure was implemented with the affy packages) and mapped to Ensembl gene identifiers using re-annotation and mapping for oligonucleotide array technologies and custom chip definition file, respectively, before detection filtering and batch correction with cross-platform normalization. Biopsies were taken from the same subjects at three time-points: pre-treatment, after 10-14 days Letrozol (2.5 mg/day, oral), and after 90 days Letrozol (2.5 mg/day, oral).

CC/C(=C(\c1ccccc1)c1ccc(OCCN(C)C)cc1)c1ccccc1 [Tamoxifen]
distant relapse risk ([1]; ER+ LN+ early stage BC, SPAG5+ mRNA overexpression): 46%
distant relapse risk ([1]; ER+ LN+ early stage BC, low SPAG5 mRNA): 22%
distant relapse risk ([1]; ER+ LN- early stage BC, SPAG5+ mRNA overexpression): 33%
distant relapse risk ([1]; ER+ LN- early stage BC, low SPAG5 mRNA): 13%

N#Cc1ccc(C(c2ccc(C#N)cc2)n2cncn2)cc1 [pre-operative endocrine therapy, letrozole]
cases with SPAG5 mRNA significantly downregulated vs pre-treatment biopsy (SPAG5 mRNA; ER+ tumours, after 2 weeks): 72%
change of SPAG5 mRNA expression vs biopsy after 2 weeks (SPAG5 mRNA; ER+ tumours, after 12 weeks): significant further reduction
change of SPAG5 mRNA expression vs pre-treatment biopsy (SPAG5 mRNA; non-responding tumours, after 2 or 12 weeks): no significant change
responding tumours with significant down-regulation of SPAG5 mRNA (SPAG5 mRNA; tumour volume reduced by 50%, after 2 weeks): 76%
